The structures appear in SMILES notation.

For one assay, the system named is allergic bronchospasm. Briefly: Herxheimer test (allergic bronchospasm in sensitised guinea pigs). It is filed as in vivo, guinea pig. The note with it: dose 50 (first column; head is a drawing), oral, 4 hours before ovalbumin challenge, mepyramine 0.5 mg/kg s.c.; ratio of 1.4 or greater significant.
Experimental: Male guinea pigs were sensitised with ovalbumin and then exposed to ovalbumin aerosol (1% w/v solution) in an observation chamber. The animals were kept in the exposure chamber until symptoms of respiratory distress, terminating in a characteristic convulsive cough. The time of exposure is the "collapse time". […] Accordingly, the response to each compound in the presence of mepyramine (0.5 mg/kg s.c.) given half an hour before challenge was studied. The compound itself was given orally four hours before antigen challenge. A protection ratio of 1.4 or greater is considered significant.
On to `CC(C(=O)O)c1ccc2oc(-c3ccc(Cl)cc3)nc2c1` (stereo not drawn) [2-(4-chlorophenyl)-α-methyl-5-benzoxazoleacetic acid], for which the protection ratio amounted to 2.7.

The next assay concerns SRS-A release. Briefly: guinea-pig chopped lung test (inhibition of SRS-A / mediator release). It counts as cell-based. The note with it: Cavia porcellus, 0.25 h; 3×10^-5 M; ovalbumin-sensitised guinea pig lung, antigen challenge, 37° C., 15 mins; mean of four samples. Here is the method:
These tests are well-recognised as indicative of anti-allergy activity in humans and mammals in general. Compounds were tested in the guinea pig chopped lung test referred to above. […] Male albino guinea pigs (250-350 g) were sensitised with ovalbumin (100 mg s/c+100 mg i p.) and three weeks later killed, their lungs removed and perfused clear of blood with Tyrode's solution. The lungs were chopped into 0.5 mm cubes and divided into 400 mg aliquots. After washing and equilibration at 37° C., the aliquots were challenged with antigen in the presence or absence of the test compound. One control group was not challenged and was used to assess non-anaphylactic SRS-A release. Following incubation with rocking at 37° C. for 15 mins, each supernatant was removed and bio-assayed. Results are expressed as the percentage inhibition of SRS-A release after exposure to 3×10^-5M solutions of test compound. Each result is the mean of four samples.
As a reminder, the inhibition is the percentage by which the read-out fell short of the control. Consider `CC(C(=O)O)c1ccc2oc(-c3ccc(F)cc3)nc2c1` (stereo not drawn) [2-(4-fluorophenyl)-α-methyl-5-benzoxazoleacetic acid], for which the inhibition at 30 µM turned out to be 36%.

Consider `CC(C(=O)O)c1ccc2nc(-c3ccccc3Cl)oc2c1` (stereo not drawn) [2-(2-chlorophenyl)-α-methyl-6-benzoxazoleacetic acid], for which the inhibition at 30 µM worked out at 16%.

Consider `CC(C(=O)O)c1ccc2oc(-c3cccc(C(F)(F)F)c3)nc2c1` (stereo not drawn) [2-(3-trifluoromethylphenyl)-α-methyl-5-benzoxazoleacetic acid], for which the inhibition at 30 µM is 27%.

Take `CC(C(=O)O)c1ccc2oc(-c3ccc(Cl)cc3)nc2c1` (stereo not drawn) [2-(4-chlorophenyl)-α-methyl-5-benzoxazoleacetic acid]: the inhibition at 30 µM turned out to be 62%.

Take `CC(C(=O)O)c1ccc2nc(-c3ccc(Cl)cc3)oc2c1` (stereo not drawn) [2-(4-chlorophenyl)-α-methyl-6-benzoxazoleacetic acid]: the inhibition at 30 µM amounted to 38%.
